Measurements as given in PMC9782626, “Copper(II) Complexes of 5–Fluoro–Salicylaldehyde: Synthesis, Characterization, Antioxidant Properties, Interaction with DNA and Serum Albumins” (Molecules, 2022).

Molecular target: T1, bovine serum albumin (BSA) (Bos taurus, UniProt P02769)
T1 construct: purchased Sigma–Aldrich Co
Test: Albumin binding by tryptophan fluorescence quenching (BSA)
Settings: for ΔΙ/Ιο, quenching of the BSA fluorescence: BSA 3 μM, λex 295 nm; for % relative BSA fluorescence emission intensity I/Io remaining (% of initial): final value, pH 7.0; for BSA-binding constant K: Scatchard equation; for BSA-quenching constant kq: from Stern–Volmer plots, τo 10^-8 s
Excerpt: Serum albumins are among the important proteins of the circulatory system. Their main role is to carry drugs and other bioactive small molecules through the bloodstream. BSA and HSA are structurally homologous albumins, having two and one tryptophan residues, respectively. The tryptophan residues of both albumins are responsible for the intense fluorescence emission band with λem,max = 342 nm for BSA and 350 nm for HSA, respectively, when their solutions are excited at 295 nm. […] The inner-filter effect was calculated with Equation (S4) and it was found too low to affect the measurements.
When the compounds were added to a solution of the albumins (3 μM), a significant quenching of the BSA (λem = 342 nm) and HSA (λem = 350 nm) fluorescence emission bands was observed (Figure 7) which was more pronounced in the case of BSA (Table 7 and Figure 8). […] The observed quenching may be ascribed to changes in the tryptophan environment of SA resulting from possible denaturation of their secondary structure, induced by the binding of the complexes to the albumins. […]
Io =1+ k τ [Q] =1+ K [Q] […]
S3Albumin -binding studies
In order to investigate if the compounds can bind to carrier proteins like serum albumins, we carried out albumin binding study by tryptophan fluorescence quenching experiments using bo vine serum albumin (BSA, 3 μM) in buffer (containing 15 mM trisodium citrate and 150 mM NaCl at pH 7.0). The quenching of the emission intensity of tryptophan residues of BSA at 343 nm was monitored using the co mpounds as que ncher s with increasing concentration [S4]. The fluo rescence emission spectra of the compounds were also recorded with λex = 295 nm. No fluorescence emission band was recorded and thus it was not related to the compounds . The influence of the inner-filter effect [S6] on the measurements wa s evaluated by equation S4.
Where Icorr = corrected intensity, Imeas = the measured intensity, c = the concentration of the quencher, d = the cuvette (1 cm), ε (λexc ) and ε(λe m) = the ε of the quencher at the excitation and the emission wavelength, respectively, as calculated from the UV-vis spectra of the […]
The Stern-Volmer and Scatchard graphs are used to study the interaction of the compounds with serum albumins. According to Stern-Volmer quenching equation (eq.
S2), where Io = the initial tryptophan fluorescence intensity of SA, I = the tryptophan fluorescence intensity of SA after the addition of the quencher, kq = the quenching […]
constant, KSV = the Stern-Volmer constant, τo = the average lifetime of SA without the quencher, and, tak ing as fluorescence lifet ime (τo) of tryptophan in SA at around 10-8 s [S 4] , KSV (in M -1) can be obtained by the slope of the diagram Io/I versus [compound] (Stern-Volmer plots), and subsequently the quenching (kq, in M -1s-1) may be calculated from eq.
From the Scatchard equation (eq. S5): […]
where n is the number of binding sites per albumin and K is the SA-binding constant (K, in M -1) is calculated from the slope in plots (ΔI/Io)/[complex] versus ΔI/Io and n is given by the ratio of y intercept to the slope [S7].
S1 Kontogiorgis, C.; Hadjipavlou–Lit ina, D. Biological Evaluat ion of Several Coumarin Derivatives Designed as Possible Anti–inflammatory/Antioxidant Agents. J. Enz. Inhib.
S2 Ruch, R.J.; Cheng, C.; Klaunig, J.E. Prevention of cytotoxicity and inhibition of intercellular communication by antioxidant catechins isolated from Chinese green tea.
S3 Wolfe, A.; Shimer, G.; Meehan, T. Polycyclic Aromatic Hydrocarbons Physically Intercalate into Duplex Regions of Denatured DNA. Biochemistry 1987, 26, 6392–6396.
S4 Lakowicz, J.R. Principles of Fluorescence Spectroscopy , 3rd ed.; Plenum Press: New […]
S5 Heller, D.P.; Greenstock, C.L. Fluorescence lifetime analysis of DNA intercalated ethid ium bromide and quench ing by free dye. Biophys. Chem.1994,50, 305–312.
S6 Stella, L.; Capodilupo, A.L.; Bietti, M. A reassessment of the association between […]
azulene and [60]fullerene. […]

T1 sequence (P02769 25-607): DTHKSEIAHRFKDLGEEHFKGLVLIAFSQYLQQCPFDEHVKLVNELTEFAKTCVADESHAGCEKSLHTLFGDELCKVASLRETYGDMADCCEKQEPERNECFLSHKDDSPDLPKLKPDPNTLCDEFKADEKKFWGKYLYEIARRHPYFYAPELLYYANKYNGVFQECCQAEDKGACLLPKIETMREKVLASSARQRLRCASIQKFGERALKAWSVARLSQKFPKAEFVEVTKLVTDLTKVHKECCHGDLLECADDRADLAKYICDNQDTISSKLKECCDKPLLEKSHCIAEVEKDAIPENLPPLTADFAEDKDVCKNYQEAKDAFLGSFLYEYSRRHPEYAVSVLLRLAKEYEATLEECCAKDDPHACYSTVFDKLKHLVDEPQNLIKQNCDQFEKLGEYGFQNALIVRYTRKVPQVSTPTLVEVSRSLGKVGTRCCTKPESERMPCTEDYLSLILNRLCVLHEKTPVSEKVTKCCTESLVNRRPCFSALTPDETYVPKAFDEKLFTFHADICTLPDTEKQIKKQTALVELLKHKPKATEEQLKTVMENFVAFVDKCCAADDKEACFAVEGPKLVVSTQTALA

SMILES	ΔΙ/Ιο, quenching of the BSA fluorescence [%]	% relative BSA fluorescence emission intensity I/Io remaining (% of initial) [%]	BSA-binding constant K	BSA-quenching constant kq
O=Cc1cc(F)ccc1[O-].O=Cc1cc(F)ccc1[O-].[Cu+2] [Complex 1, [Cu(5–F–salo)2]]	62.5	37.5	4.05 (±0.02) × 10^4 M^−1	9.38 (±0.28) × 10^12 M^−1 s^−1
O=Cc1cc(F)ccc1[O-].[Cl-].[Cu+2].c1ccc(Nc2ccccn2)nc1 [Complex 2, [Cu(5–F–salo)(bipyam)Cl]]	54.0	46.0	3.15 (±0.18) × 10^4 M^−1	6.49 (±0.14) × 10^12 M^−1 s^−1
CO.Cc1ccc2ccc3ccc(C)nc3c2n1.O=Cc1cc(F)ccc1[O-].[Cl-].[Cu+2] [Complex 3, [Cu(5–F–salo)(neoc)Cl].CH3OH]	84.3	15.7	2.51 (±0.10) × 10^5 M^−1	2.75 (±0.10) × 10^13 M^−1 s^−1
O=Cc1cc(F)ccc1[O-].O=[N+]([O-])[O-].[Cu+2].c1cnc2c(c1)ccc1cccnc12 [Complex 4, [Cu(5–F–salo)(phen)(NO3)]]	75.3	24.7	2.35 (±0.10) × 10^5 M^−1	1.62 (±0.06) × 10^13 M^−1 s^−1
O=Cc1cc(F)ccc1[O-].O=[N+]([O-])[O-].[Cu+2].c1ccc(-c2ccccn2)nc1 [Complex 5, [Cu(5–F–salo)(bipy)(NO3)]]	68.3	–	3.23 (±0.12) × 10^5 M^−1	1.87 (±0.09) × 10^13 M^−1 s^−1
